From ChEMBL document CHEMBL1201862, “PubChem BioAssay data set” (2004)
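These data come from cells grown in 96-well plates and exposed to compound for 48 hours at five concentrations. GI50 = concentration required for 50% inhibition of growth.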 The source made the active and inactive calls. Rule as the data show it: active = GI50 up to about 1.1 µM and inactive = higher.

How the values were obtained:
Assay in all cases: inhibition of tumour cell growth, NCI panel, 48 h
IGROV-1 = tested on: IGROV-1
CAKI-1 = tested on: CAKI-1
U-251 = tested on: U-251
UACC-257 = tested on: UACC-257
NCI-H522 = tested on: NCI-H522
NCI-H460 = tested on: NCI-H460
OVCAR-5 = tested on: OVCAR-5
HT-29 = tested on: HT-29
OVCAR-4 = tested on: OVCAR-4
NCI/ADR-RES = tested on: NCI/ADR-RES
SNB-19 = tested on: SNB-19
MCF7 = tested on: MCF7
HCT-116 = tested on: HCT-116
HCC 2998 = tested on: HCC 2998
OVCAR-8 = tested on: OVCAR-8
RPMI-8226 = tested on: RPMI-8226
786-0 = tested on: 786-0
A498 = tested on: A498
SF-295 = tested on: SF-295
SK-MEL-5 = tested on: SK-MEL-5

Structure (SMILES)	GI50 (IGROV-1)	GI50 (CAKI-1)	GI50 (U-251)	GI50 (UACC-257)	GI50 (NCI-H522)	GI50 (NCI-H460)	GI50 (OVCAR-5)	GI50 (HT-29)	GI50 (OVCAR-4)	GI50 (NCI/ADR-RES)	GI50 (SNB-19)	GI50 (MCF7)	GI50 (HCT-116)	GI50 (HCC 2998)	GI50 (OVCAR-8)	GI50 (RPMI-8226)	GI50 (786-0)	GI50 (A498)	GI50 (SF-295)	GI50 (SK-MEL-5)
O=C(O)CSc1ccc([N+](=O)[O-])cc1[N+](=O)[O-]	> 100 µM (inactive)	> 100 µM (inactive)	> 100 µM (inactive)	> 100 µM (inactive)	> 100 µM (inactive)	> 100 µM (inactive)	> 100 µM (inactive)	> 100 µM (inactive)	> 100 µM (inactive)	> 100 µM (inactive)	> 100 µM (inactive)	> 100 µM (inactive)	> 100 µM (inactive)	> 100 µM (inactive)	> 100 µM (inactive)	> 100 µM (inactive)	> 100 µM (inactive)	> 100 µM (inactive)	> 100 µM (inactive)	
C[C@]1(O)CC[C@H]2[C@@H]3CCc4cc(O)ccc4[C@H]3CC[C@@]21C	0.735 µM (active)	3.62 µM (inactive)	4.03 µM (inactive)	28.2 µM (inactive)	0.991 µM (active)	1.36 µM (inactive)	8.02 µM (inactive)	6.7 µM (inactive)	> 100 µM (inactive)	1.99 µM (inactive)	92.3 µM (inactive)	0.665 µM (active)		0.233 µM (active)	7.48 µM (inactive)	0.687 µM (active)	6.38 µM (inactive)	0.456 µM (active)	1.48 µM (inactive)	0.391 µM (active)
COC(=O)C1=C(C(=O)OC)SC2(S1)C1=C(CCCC1)SC(C(=O)OC)=C2C(=O)OC	8.32 µM (inactive)	4.06 µM (inactive)	6.67 µM (inactive)	13.1 µM (inactive)	1.72 µM (inactive)	3.84 µM (inactive)	12.6 µM (inactive)	2.84 µM (inactive)	12.2 µM (inactive)	17.9 µM (inactive)	14.5 µM (inactive)	2.61 µM (inactive)	1.52 µM (inactive)	12.3 µM (inactive)	6.32 µM (inactive)	0.586 µM (active)		6.21 µM (inactive)	14.6 µM (inactive)	10.1 µM (inactive)
O=C(/C=C/c1ccc(O)c(O)c1)NCCc1ccc(-c2ccccc2)cc1		40.8 µM (inactive)		> 100 µM (inactive)	> 100 µM (inactive)	48.9 µM (inactive)	87.7 µM (inactive)	63.5 µM (inactive)	> 100 µM (inactive)	64.7 µM (inactive)	> 100 µM (inactive)	32.3 µM (inactive)	27.3 µM (inactive)	54.3 µM (inactive)	> 100 µM (inactive)	39.4 µM (inactive)	49.7 µM (inactive)	> 100 µM (inactive)	40.8 µM (inactive)	45.8 µM (inactive)
NCCNc1ccc(NCCN)c2c1C(=O)c1c(O)ccc(O)c1C2=O	0.0873 µM (active)	0.00711 µM (active)		1.06 µM (active)	0.0324 µM (active)	< 0.001 µM (active)	0.971 µM (active)	0.0659 µM (active)	0.207 µM (active)	0.192 µM (active)	0.00944 µM (active)	0.00731 µM (active)	0.051 µM (active)	0.423 µM (active)	0.0158 µM (active)	0.0106 µM (active)	0.00459 µM (active)	0.0818 µM (active)	0.00445 µM (active)	0.129 µM (active)
O=[N+]([O-])c1ccc(NC(=S)N/N=C(\c2ccccc2)c2ccccn2)cc1	1.64 µM (inactive)	1.6 µM (inactive)	1.36 µM (inactive)	1.6 µM (inactive)	0.12 µM (active)	4.85 µM (inactive)	1.88 µM (inactive)		1.73 µM (inactive)	2.04 µM (inactive)	1.58 µM (inactive)	1.43 µM (inactive)	1.49 µM (inactive)	1.51 µM (inactive)	0.037 µM (active)	4.74 µM (inactive)	1.25 µM (inactive)	1.75 µM (inactive)	1.55 µM (inactive)	1.36 µM (inactive)
Cc1cc(S(=O)(=O)/N=C(\NN)NCC(=O)NN)c(S)cc1Cl	> 10 µM (inactive)	> 10 µM (inactive)	> 10 µM (inactive)	> 10 µM (inactive)	> 10 µM (inactive)	> 10 µM (inactive)	> 10 µM (inactive)	> 10 µM (inactive)	> 10 µM (inactive)	> 10 µM (inactive)	> 10 µM (inactive)	> 10 µM (inactive)	> 10 µM (inactive)	8.73 µM (inactive)	> 10 µM (inactive)	> 10 µM (inactive)	> 10 µM (inactive)	> 10 µM (inactive)	> 10 µM (inactive)	8.85 µM (inactive)
COc1ccc(-c2cc(-c3ccc(Nc4ccnc5cc(Cl)ccc45)cc3)nc(N)c2C#N)cc1	> 100 µM (inactive)	> 100 µM (inactive)	> 100 µM (inactive)		> 100 µM (inactive)	> 100 µM (inactive)	> 100 µM (inactive)		> 100 µM (inactive)	> 100 µM (inactive)	> 100 µM (inactive)	> 100 µM (inactive)	> 100 µM (inactive)	> 100 µM (inactive)	> 100 µM (inactive)	> 100 µM (inactive)	> 100 µM (inactive)	> 100 µM (inactive)	> 100 µM (inactive)	
Cc1cc(=O)oc2cc(OC(=O)Nc3ccc(Cl)c(Cl)c3)ccc12	20.2 µM (inactive)	38.3 µM (inactive)	20.4 µM (inactive)	30.8 µM (inactive)	17.3 µM (inactive)	18.5 µM (inactive)	20.4 µM (inactive)	25.2 µM (inactive)	41.3 µM (inactive)	30.5 µM (inactive)	25.9 µM (inactive)	25.6 µM (inactive)	15.5 µM (inactive)	19.4 µM (inactive)	20.2 µM (inactive)	9.29 µM (inactive)	38.8 µM (inactive)	14.2 µM (inactive)	20.9 µM (inactive)	16.1 µM (inactive)
N#CC1(C#N)NC(c2cccs2)C(C#N)(C#N)NC1c1cccs1 (stereo not drawn)	30.3 µM (inactive)	58.6 µM (inactive)	22.8 µM (inactive)	> 100 µM (inactive)	23.1 µM (inactive)	37.3 µM (inactive)	31.9 µM (inactive)	47.3 µM (inactive)	43.7 µM (inactive)	77.3 µM (inactive)	55.2 µM (inactive)	12.2 µM (inactive)	30.5 µM (inactive)	57.1 µM (inactive)	54.7 µM (inactive)	27.4 µM (inactive)	39.9 µM (inactive)	20.5 µM (inactive)	52.5 µM (inactive)	26.7 µM (inactive)
C=C1C(=O)O[C@H]2[C@H]3O[C@@H](C[C@@H]12)[C@@]1(C)CC[C@H](O1)[C@H](C)CCC[C@H]3C	1.19 µM (inactive)	1.28 µM (inactive)	1.5 µM (inactive)	1.91 µM (inactive)	1.42 µM (inactive)	1.76 µM (inactive)	1.67 µM (inactive)	1.29 µM (inactive)	1.58 µM (inactive)	1.53 µM (inactive)	10.1 µM (inactive)	1.77 µM (inactive)	1.04 µM (active)	1.28 µM (inactive)	1.38 µM (inactive)	0.512 µM (active)	1.31 µM (inactive)	1.71 µM (inactive)	4.82 µM (inactive)	1.42 µM (inactive)
COc1cccc(N[C@@H]2c3cc4c(cc3C(c3cc(OC)c(O)c(OC)c3)[C@H]3C(=O)OCC32)OCO4)c1 (stereo partly drawn)	2.07 µM (inactive)	0.197 µM (active)	0.411 µM (active)	0.44 µM (active)	1.21 µM (inactive)	< 0.01 µM (active)	4.46 µM (inactive)	0.973 µM (active)	7.55 µM (inactive)	0.348 µM (active)	0.328 µM (active)	0.207 µM (active)	0.693 µM (active)	1.36 µM (inactive)	1.22 µM (inactive)	0.186 µM (active)		0.293 µM (active)	0.186 µM (active)	0.8 µM (active)
CCc1c(Cc2cc(C)cc(C)c2)n2c(nc1=O)SCC2CBr (stereo not drawn)	24.2 µM (inactive)	> 50 µM (inactive)	24.8 µM (inactive)	> 50 µM (inactive)	27.4 µM (inactive)	> 50 µM (inactive)	> 50 µM (inactive)	> 50 µM (inactive)	46.1 µM (inactive)	> 50 µM (inactive)	23.1 µM (inactive)	29.4 µM (inactive)	> 50 µM (inactive)	> 50 µM (inactive)	10.4 µM (inactive)	> 50 µM (inactive)	> 50 µM (inactive)	28.7 µM (inactive)		> 50 µM (inactive)
NC(=O)C1=C(c2ccccc2)c2ccccc2C1=O	16.1 µM (inactive)	16 µM (inactive)	18.3 µM (inactive)	13.6 µM (inactive)	18.6 µM (inactive)	15.9 µM (inactive)	18.6 µM (inactive)	16.6 µM (inactive)	18.5 µM (inactive)	17.7 µM (inactive)	17.7 µM (inactive)	16.1 µM (inactive)	16.9 µM (inactive)	15.8 µM (inactive)	15.6 µM (inactive)	14.6 µM (inactive)	15.7 µM (inactive)	28 µM (inactive)	23 µM (inactive)	16.3 µM (inactive)
